Data: US7585503B2, “Method for detecting multi-drug resistance” (priority 2005, dated 2009)

Experiments:
Format in all cases: cell-based, human
[1] = tested on: A2780/CP; assay: Cisplatin resistance (IC-50) of resistant sub-line versus parental line
Description: (§1) Three isogenic pairs of sensitive and multidrug resistant phenotypes of human ovarian carcinoma cell lines were studied. […] The morphology of the resistant cells differed from the sensitive isotypes, consistent with the cell surface molecular modifications.

[2] = tested on: 2008/C13*5.25; assay: as above
Description: as §1

[3] = tested on: IGROV-1/CP; assay: as above; conditions: IGROV-1/CP versus parental IGROV-1
Description: as §1

[4] = tested on: 2008 sensitive ovarian carcinoma cells; assay: Cytotoxicity assay by colony forming ability, sensitive cells; conditions: 25 μM cisplatin, 1 h
Procedure: Colony forming ability assay was performed by seeding 100 cells/ml of sensitive or resistant isotypes per each well/ml in 12 well plates. Cells were cultured with DMEM, 10% FBS overnight. The assay was performed in 4 plates for each of the sensitive or resistant isotypes in the format shown in Table 1 and was repeated three times. 2008 isotype pair were used in the experiment. Sensitive cells could not tolerate such high concentration of cisplatin, used in the assay, to serve the resistant cells, as the IC-50 was 10 fold higher for resistant cells compare to their parental susceptible phenotype.
Table 1: Colony forming ability was performed by seeding 100 cells/ml of sensitive or resistant isotypes per each well/ml in 12 well plates. Cells were cultured with DMEM, 10% FBS overnight. The assay was performed in 4 plates for each of the sensitive or resistant isotypes in the above format and was repeated three times for each cell pair. plate 1 (control): DMEM, 10%FBS; plate 2: DMEM containing 25 μM cisplatin; plate 3: DMEM containing 25 μM cisplatin and 5 mU neuraminidase (AUS); plate 4: DMEM containing 5 mU neuraminidase.
After one hour incubation at 37 degree C., 5% CO2, the media of different treatments were removed from the wells. Cells were then washed with DMEM and was replaced by fresh DMEM, 10% FBS. Incubation continued for about two more weeks for the colonies to appear. […]

[5] = tested on: 2008/C13*5.25 resistant ovarian carcinoma cells; assay: Cytotoxicity assay by colony forming ability, resistant cells; conditions: 25 μM cisplatin with or without 5 mU sialidase, 1 h, about two weeks of growth
Procedure: To confirm the sialidase effects on F-DDP internalization and sensitizing the resistant cells to the drug, the resistant cells were tested in cytotoxicity assay to determine colony formation ability with cisplatin treatments in the presence and absence of sialidase. Resistant cells were treated with high concentration of cisplatin (25 μM, an IC-50 about 10 fold higher than that of the sensitive cells) in the absence and presence of 5 mU sialidase (see table 1 in “Experimental procedures”). The colony formation ability of MDR cells was reduced 40-50%, when sialidase concomitant with cisplatin was added to the resistant cells compare to the resistant cells treated with the same amounts of cisplatin in the absence of sialidase. The data, thus, support the sialidase-mediated drug internalization and increasing the cytotoxicity of the drug.
Colony forming ability assay was performed by seeding 100 cells/ml of sensitive or resistant isotypes per each well/ml in 12 well plates. Cells were cultured with DMEM, 10% FBS overnight. The assay was performed in 4 plates for each of the sensitive or resistant isotypes in the format shown in Table 1 and was repeated three times. 2008 isotype pair were used in the experiment. […]

For `N.N.[Cl][Pt][Cl]` [cisplatin, Dichlorodiaminocisplatin], the “fold increase in IC-50 to cisplatin resistance” value (from here on “fold increase”) [1] was 6.9 fold, the “fold increase” value ([2]; 2008/C13*5.25 versus parental 2008) was 10.4 fold and the IC50 ([2]; resistant cells, the concentration used in the colony assay) was 25 µM. The “fold increase” value [3] was 7.6 fold, the “colony formation (in words)” value [4] was “almost no real colony formed” and the “cell growth / colony formation relative to control (plate #1 = 100% growth)” value [5] was “about 80 % of the control”.
